Tested on: HIV-IIIb
Test: Test A: Antiviral Assays in MT4 Cells
Type: cell-based
Conditions: Human immunodeficiency virus 1, IIIB, MT4, 120 h, MT-4 cells infected with HIV-IIIb (0.004 m.o.i.), 5 days of incubation, CellTiter-Glo chemiluminescence readout; read-out: EC50
Description: Test A: Antiviral Assays in MT4 Cells
For the antiviral assay utilizing MT-4 cells, 0.4 μL of […] test concentration of 3-fold serially diluted compound in DMSO was added to 40 μL of cell growth medium (RPMI 1640, 10% FBS, 1% penicillin/Streptomycin, 1% L-Glutamine, 1% HEPES) in each well of 384-well assay plates (10 concentrations) in quadruplicate.
1 mL aliquots of 2×10e6 MT-4 cells are pre-infected for 1 and 3 hrs respectively, @37° C. with 25 μL (MT4) or of either cell growth medium (mock-infected) or a fresh 1:250 dilution of an HIV-IIIb concentrated ABI stock (0.004 m.o.i. for MT4 cells). Infected and uninfected cells are diluted in cell growth medium and 35 uL of 2000 (for MT4) cells is added to each well of the assay plates.
Assay plates were then incubated in a 37° C. incubator. After 5 days of incubation, 25 μl of 2× concentrated CellTiter-Glo™ Reagent (catalog #G7573, Promega Biosciences, Inc., Madison, Wis.) was added to each well of the assay plate. Cell lysis was carried out by incubating at room temperature for 2-3 min and then chemiluminescence was read using the Envision reader (PerkinElmer).

| Compound | EC50 |
| --- | --- |
| Cc1cc2ccccc2c(-c2ccc(C(F)(F)F)c3cccnc23)c1[C@H](OC(C)(C)C)C(=O)O [Compound 175] | 20000 nM |
| Cc1c([C@H](OC(C)(C)C)C(=O)O)c(-c2ccc3c4c(ccnc24)CCO3)c2ccccc2c1F (atropisomer, axis not shown) [Compound 178] | 34000 nM |
| Cc1ccc2cc(C)c(C(OC(C)(C)C)C(=O)O)c(-c3ccc(Cl)cc3)c2c1 (centres unmarked) [Compound 78, 2-tert-Butoxy-2-(1-(4-chlorophenyl)-3,7-dimethylnaphthalen-2-yl)acetic acid] | 300 nM |
| Cc1c(C(OC(C)(C)C)C(=O)O)c(-c2ccc(Cl)cc2)c2ccccc2c1C (centres unmarked) [Compound 127, 2-tert-Butoxy-2-(1-(4-chlorophenyl)-3,4-dimethylnaphthalen-2-yl)acetic acid] | 87 nM |
| Cc1cc2ccc(C#CC(C)(C)O)cc2c(-c2ccc(Cl)cc2)c1C(OC(C)(C)C)C(=O)O (centres unmarked) [Compound 69, 2-tert-butoxy-2-(1-(4-chlorophenyl)-7-(3-hydroxy-3-methylbut-1-ynyl)-3-methylnaphthalen-2-yl)acetic acid] | 380 nM |
| Cc1c(C(OC(C)(C)C)C(=O)O)c(-c2ccc(Cl)cc2)c2ccccc2c1-c1cncnc1 (centres unmarked) [Compound 139, 2-tert-Butoxy-2-(1-(4-chlorophenyl)-3-methyl-4-(pyrimidin-5-yl)naphthalen-2-yl)acetic acid] | 10 nM |
| Cc1cc2c(F)cc(F)cc2c(-c2ccc3c4c(ccnc24)CCO3)c1[C@H](OC(C)(C)C)C(=O)O (atropisomer, axis not shown) [Compound 172] | 50000 nM |
| Cc1cc2cc(-c3cncn3C)ccc2c(-c2ccc(Cl)cc2)c1[C@H](OC(C)(C)C)C(=O)O [Compound 65, (S)-2-tert-butoxy-2-(1-(4-chlorophenyl)-3-methyl-6-(1-methyl-1H-imidazol-5-yl)naphthalen-2-yl)acetic acid] | 190 nM |
| CC(C)(C)O[C@H](C(=O)O)c1c(COc2cccnc2)cc2ccccc2c1-c1ccc(Cl)cc1 [Compound 25, (S)-2-tert-Butoxy-2-(1-(4-chlorophenyl)-3-((pyridin-3-yloxy)methyl)naphthalen-2-yl)acetic acid] | 26000 nM |
| Cc1cc2cc(C(N)=O)c(F)cc2c(-c2ccc3c4c(ccnc24)CCO3)c1[C@H](OC(C)(C)C)C(=O)O (atropisomer, axis not shown) [Compound 168] | 45000 nM |
| Cc1cc2ccc(C#Cc3cncn3C)cc2c(-c2ccc(Cl)cc2)c1C(OC(C)(C)C)C(=O)O (centres unmarked) [Compound 81, 2-tert-Butoxy-2-(1-(4-chlorophenyl)-3-methyl-7-((1-methyl-1H-imidazol-5-yl)ethynyl)naphthalen-2-yl)acetic acid] | 150 nM |
| Cc1c(C(OC(C)(C)C)C(=O)O)c(-c2ccc(Cl)cc2)c2ccccc2c1Br (centres unmarked) [Compound 126, 2-(4-Bromo-1-(4-chlorophenyl)-3-methylnaphthalen-2-yl)-2-tert-butoxyacetic acid] | 833 nM |
| Cc1c(C(OC(C)(C)C)C(=O)O)c(-c2ccc(Cl)cc2)c2ccccc2c1-c1ccc(Cl)cc1 (centres unmarked) [Compound 140, 2-(1,4-Bis(4-chlorophenyl)-3-methylnaphthalen-2-yl)-2-tert-butoxyacetic acid] | 1600 nM |
| COC(=O)NC(C)(C)C#Cc1ccc2cc(C)c(C(OC(C)(C)C)C(=O)O)c(-c3ccc(Cl)cc3)c2c1 (centres unmarked) [Compound 97, 2-tert-Butoxy-2-(1-(4-chlorophenyl)-7-(3-(methoxycarbonylamino)-3-methylbut-1-ynyl)-3-methylnaphthalen-2-yl)acetic acid] | 300 nM |
| Cc1cc2cc(Cl)ccc2c(-c2ccc(Cl)cc2)c1C(OC(C)(C)C)C(=O)O (racemic) [Compound 67, 2-tert-Butoxy-2-(6-chloro-1-(4-chlorophenyl)-3-methylnaphthalen-2-yl)acetic acid] | 290 nM |
| Cc1cc2ccc(C#CC3CC3)cc2c(-c2ccc(Cl)cc2)c1C(OC(C)(C)C)C(=O)O (centres unmarked) [Compound 75, 2-tert-Butoxy-2-(1-(4-chlorophenyl)-7-(cyclopropylethynyl)-3-methylnaphthalen-2-yl)acetic acid] | 980 nM |
| CN(C)Cc1cc2ccccc2c(-c2ccc(Cl)cc2)c1[C@H](OC(C)(C)C)C(=O)O [Compound 24, (S)-2-tert-Butoxy-2-(1-(4-chlorophenyl)-3-(dimethylaminomethyl)naphthalen-2-yl)acetic acid] | 29000 nM |
| Cc1cc2ccc(C#CC3CCCC3)cc2c(-c2ccc(Cl)cc2)c1C(OC(C)(C)C)C(=O)O (centres unmarked) [Compound 74, 2-tert-Butoxy-2-(1-(4-chlorophenyl)-7-(cyclopentylethynyl)-3-methylnaphthalen-2-yl)acetic acid] | 1200 nM |
| COc1ccc(Cc2c(OC)ccc3c(-c4ccc(Cl)cc4)c(C(OC(C)(C)C)C(=O)O)c(C)cc23)cc1 (centres unmarked) [Compound 49, 2-tert-Butoxy-2-(1-(4-chlorophenyl)-6-methoxy-5-(4-methoxybenzyl)-3-methylnaphthalen-2-yl)acetic acid] | 650 nM |
| C=Cc1cc2ccccc2c(-c2ccc(Cl)cc2)c1[C@H](OC(C)(C)C)C(=O)O [Compound 29A, (S)-2-tert-Butoxy-2-(1-(4-chlorophenyl)-3-vinylnaphthalen-2-yl)acetic acid] | 130 nM |
| CC(=O)NC(C)(C)C#Cc1ccc2cc(C)c(C(OC(C)(C)C)C(=O)O)c(-c3ccc(Cl)cc3)c2c1 (centres unmarked) [Compound 96, 2-(7-(3-Acetamido-3-methylbut-1-ynyl)-1-(4-chlorophenyl)-3-methylnaphthalen-2-yl)-2-tert-butoxyacetic acid] | 88 nM |
| Cc1ccc2c(-c3ccc(Cl)cc3)c(C(OC(C)(C)C)C(=O)O)c(C)cc2c1 (centres unmarked) [Compound 58, 2-tert-Butoxy-2-(1-(4-chlorophenyl)-3,6-dimethylnaphthalen-2-yl)acetic acid] | 42 nM |
| Cc1cc2c(-c3cncnc3)cccc2c(-c2ccc(Cl)cc2)c1C(OC(C)(C)C)C(=O)O (centres unmarked) [Compound 41, 2-tert-Butoxy-2-(1-(4-chlorophenyl)-3-methyl-5-(pyrimidin-5-yl)naphthalen-2-yl)acetic acid] | 400 nM |
| Cc1c(C(OC(C)(C)C)C(=O)O)c(-c2ccc(Cl)cc2)c2ccccc2c1-c1ccc(N(C)C)nc1 (centres unmarked) [Compound 137, 2-tert-Butoxy-2-(1-(4-chlorophenyl)-4-(6-(dimethylamino)pyridin-3-yl)-3-methylnaphthalen-2-yl)acetic acid] | 130 nM |
| Cc1cc2ccc(C#CC3(O)CCCCC3)cc2c(-c2ccc(Cl)cc2)c1C(OC(C)(C)C)C(=O)O (centres unmarked) [Compound 83, 2-tert-Butoxy-2-(1-(4-chlorophenyl)-7-((1-hydroxycyclohexyl)ethynyl)-3-methylnaphthalen-2-yl)acetic acid] | 78 nM |
| Cc1cc2ccc(C#CC3(O)CCCC3)cc2c(-c2ccc(Cl)cc2)c1C(OC(C)(C)C)C(=O)O (centres unmarked) [Compound 73, 2-tert-butoxy-2-(1-(4-chlorophenyl)-7-((1-hydroxycyclopentyl)ethynyl)-3-methylnaphthalen-2-yl)acetic acid] | 130 nM |

Same assay, conditions: MT-4 cells infected with HIV-IIIb (0.004 m.o.i.), 5 days of incubation, CellTiter-Glo chemiluminescence readout; read-out: EC50

| Compound | EC50 |
| --- | --- |
| CCc1cc2cc(C)c([C@H](OC(C)(C)C)C(=O)O)c(-c3ccc4c5c(ccnc35)CCO4)c2cc1F [Compound 104, (S)-2-tert-Butoxy-2-((R)-1-(2,3-dihydropyrano[4,3,2-de]quinolin-7-yl)-6-ethyl-7-fluoro-3-methylnaphthalen-2-yl)acetic acid] | 36 nM |
| Cc1cc2c(C)c(C)ccc2c(-c2ccc3c4c(ccnc24)CCO3)c1[C@H](OC(C)(C)C)C(=O)O [Compound 117, (S)-2-tert-Butoxy-2-((R)-1-(2,3-dihydropyrano[4,3,2-de]quinolin-7-yl)-3,5,6-trimethylnaphthalen-2-yl)acetic acid] | 11 nM |
| Cc1cc2cc(F)c(F)cc2c(-c2ccc3c4c(ccnc24)CCO3)c1[C@@H](OC(C)(C)C)C(=O)O [Compound 109, (R)-2-tert-Butoxy-2-((R)-1-(2,3-dihydropyrano[4,3,2-de]quinolin-7-yl)-6,7-difluoro-3-methylnaphthalen-2-yl)acetic acid] | 29000 nM |
| Cc1cc2ccccc2c(-c2ccc3c4c(ccnc24)CCO3)c1[C@H](OC(C)(C)C)C(=O)O [Compound 6D, (S)-2-tert-Butoxy-2-((R)-1-(2,3-dihydropyrano[4,3,2-de]quinolin-7-yl)-3-methylnaphthalen-2-yl)acetic acid] | 14 nM |
| Cc1cc2ccc(Cl)cc2c(-c2ccc3c4c(ccnc24)CCO3)c1C(OC(C)(C)C)C(=O)O (racemic) [Compound 124, (±)-(S)-2-tert-butoxy-2-((R)-7-chloro-1-(2,3-dihydropyrano[4,3,2-de]quinolin-7-yl)-3-methylnaphthalen-2-yl)acetic acid] | 150 nM |
| Cc1cc2ccccc2c(-c2cc(F)cc3cccnc23)c1[C@H](OC(C)(C)C)C(=O)O (atropisomer, axis not shown) [Compound 9, (S)-2-tert-Butoxy-2-(1-((R)-6-fluoroquinolin-8-yl)-3-methylnaphthalen-2-yl)acetic acid] | 1300 nM |
| Cc1cc2cc(F)c(F)cc2c(-c2ccc3c4c(ccnc24)CCO3)c1[C@@H](OC(C)(C)C)C(=O)O (atropisomer, axis not shown) [Compound 173] | 3200 nM |
| Cc1cc2ccccc2c(-c2cc(F)cc3cccnc23)c1[C@H](OC(C)(C)C)C(=O)O [Compound 158] | 35000 nM |
| Cc1cc2cc(F)ccc2c(-c2ccc3c4c(ccnc24)CCO3)c1C(OC(C)(C)C)C(=O)O (centres unmarked) [Compound 162] | 1400 nM |

Source: patent publication US9102614B2, “Naphth-2-ylacetic acid derivatives to treat AIDS” (Gilead Sciences, Inc., priority 2010, dated 2015)
